Measured values published in patent US12247032B2, “Substituted pyrazolo[1,5-a]pyrimidines as inhibitors of JAK kinases” (Genentech, Inc., priority 2019, dated 2025).

Tested on: JAK1 pathway (P-STAT6 in TF-1 human erythroleukemia cells + IL-13)
Test: P-STAT6 TF-1+Interleukin-13 (IL-13) assay
Type: cell-based
Settings: Homo sapiens, TF-1, 0.5 h, TF-1 cells, 30 minutes compound, IL-13 10 minutes; IC50 by four-parameter fit; read-out: Cellular PSTAT6 TF-1 + IL13
Method: TF-1 human erythroleukemia cells (ATCC®; Manassas, VA; Catalog No. CRL-2003™) were grown in Roswell Park Memorial Institute (RPMI) medium supplemented with 10% heat-inactivated fetal bovine serum (FBS), 2 ng/mL granulocyte-macrophage colony-stimulating factor, 1× non-essential amino acids (NEAA), and 1 mM sodium pyruvate. The day before the assay, the cultures were transferred to Opti-MEM™, 1×NEAA, 1 mM sodium pyruvate, and 0.5% charcoal-stripped FBS (starve medium). Inhibitor stock solutions (5 mM in DMSO) were serially diluted 1:2 in DMSO to generate a 10-point concentration titration (at 500× test concentration), which was further diluted by a 50-fold dilution in Assay Medium (RPMI containing 1×NEAA and 1 mM sodium pyruvate) to generate a 10× concentration titration (in 2% DMSO). The cells (300,000 cells/well in 35 μL of Assay Medium) were seeded in 384-well Greiner plates. Diluted inhibitor at 10× concentration (5 μL) was added to the cells and the plates were incubated for 30 minutes at 37° C. in a humidified incubator. Cells were stimulated with the human recombinant cytokine at the respective EC90 concentrations, as previously determined for each individual lot. For the phosphorylated signal transducer and activator of transcription 6 (P-STAT6) TF-1+Interleukin-13 (IL-13) assay, 10 μL of 250 ng/mL IL-13 (R&D Systems; Minneapolis, MN) was added to the cells, which were then incubated for 10 minutes at 37° C. For the P-STAT5 TF-1+Erythropoietin (EPO) assay, 10 μL of 110 IU/mL EPO (Gibco Life Technologies, Catalog No. PHC2054) was added to the cells, which were then incubated for 30 min at 37° C. For both assays, the incubation was followed by addition to the cells of 5 μL of ice-cold 10× cell lysis buffer (Cell Signaling Technologies; Danvers, MA; Catalog No. 9803S) containing 1 mM phenylmethylsulfonyl fluoride (PMSF). Assay plates were frozen at −80° C. for a minimum of 1 hour. In the IL-13 assay, P-STAT6 was measured by coating goat anti-rabbit (GAR) plates (Meso Scale Discovery [MSD]; Rockville, MD; Catalog No. MSD L21RA-1) with rabbit anti-human total STAT6 antibody (Cell Signaling Technologies; Catalog No. 9362S), incubating the cell lysates in the coated plates overnight at 4° C., and then detecting with mouse anti-P-STAT6 (Tyr641) Clone 16E12 antibody (MilliporeSigma; Burlington, MA; Catalog No. 05-590, custom labeled by MSD with SULFO-tag) using standard MSD plate processing, washing, and detection protocols. In the EPO assay, P-STAT5 was detected using the phospho-STAT5a,b Whole Cell Lysate Kit (MSD; Catalog No. K150IGD-1). The electrochemiluminescence (ECL) signal of wells was read on the MESO SECTOR S600 (MSD) reader.
Data analysis was performed by subtracting the negative control (cytokine stimulated and 20 μM control inhibitor-treated cells) mean ECL value from the ECL value of all wells, determining percent of control for test compound well ECL values relative to the positive control (cytokine stimulated and DMSO-treated cells) mean ECL value, and determining the IC50 for test compounds with a four-parameter logistic fit model as shown in Equation 4.

SMILES	IC50 [nM]
CNCCn1nnc(Cn2cc(NC(=O)c3cnn4cccnc34)c(-c3cc(OC(F)F)ccc3OC(F)F)n2)n1 [Example 20, N-[3-[2,5-bis(difluoromethoxy)phenyl]-1-[[2-[2-(methylamino)ethyl]tetrazol-5-yl]methyl]pyrazol-4-yl]pyrazolo[1,5-a]pyrimidine-3-carboxamide]	45
CN1CCC(N2CC(n3nnc(Cn4cc(NC(=O)c5cnn6cccnc56)c(-c5cc(OC(F)F)ccc5OC(F)F)n4)n3)C2)C1 (single isomer, unassigned) [Example 72, N-[3-[2,5-bis(difluoromethoxy)phenyl]-1-[[2-[1-(1-methylpyrrolidin-3-yl)azetidin-3-yl]tetrazol-5-yl]methyl]pyrazol-4-yl]pyrazolo[1,5-a]pyrimidine-3-carboxamide]	39

Other lines, results leading:

IC50 [nM]	SMILES
21	CN1CCC(N2CC(n3nnc(Cn4cc(NC(=O)c5cnn6cccnc56)c(-c5cc(OC(F)F)ccc5OC(F)F)n4)n3)C2)CC1 [Example 38, N-[3-[2,5-bis(difluoromethoxy)phenyl]-1-[[2-[1-(1-methyl-4-piperidyl)azetidin-3-yl]tetrazol-5-yl]methyl]pyrazol-4-yl]pyrazolo[1,5-a]pyrimidine-3-carboxamide]
8.4	O=C(Nc1cn(Cc2nnn(C3CNC3)n2)nc1-c1cc(Cl)ccc1OC(F)F)c1cnn2cccnc12 [Example 8, N-[1-[[2-(azetidin-3-yl)tetrazol-5-yl]methyl]-3-[5-chloro-2-(difluoromethoxy)phenyl]pyrazol-4-yl]pyrazolo[1,5-a]pyrimidine-3-carboxamide]
11	CN1CCC(n2nnnc2Cn2cc(NC(=O)c3cnn4cccnc34)c(-c3cc(OC(F)F)ccc3OC(F)F)n2)C1 (stereo not shown) [Example 26, N-[3-[2,5-bis(difluoromethoxy)phenyl]-1-[[1-(1-methylpyrrolidin-3-yl)tetrazol-5-yl]methyl]pyrazol-4-yl]pyrazolo[1,5-a]pyrimidine-3-carboxamide]
13	O=C(Nc1cn(Cc2nnn(C3CCNC3)n2)nc1-c1cc(OC(F)F)ccc1OC(F)F)c1cnn2cccnc12 (single isomer, unassigned) [Example 27, N-[3-[2,5-bis(difluoromethoxy)phenyl]-1-[(2-pyrrolidin-3-yltetrazol-5-yl)methyl]pyrazol-4-yl]pyrazolo[1,5-a]pyrimidine-3-carboxamide]

Same assay, conditions: TF-1 cells, 30 minutes compound, IL-13 10 minutes; IC50 by four-parameter fit; read-out: Cellular PSTAT6 TF-1 + IL13

SMILES	IC50 [nM]
O=C(Nc1cn(Cc2nnn(C3CCNC3)n2)nc1-c1cc(OC(F)F)ccc1OC(F)F)c1cnn2cccnc12 (single isomer, unassigned) [Example 28, N-[3-[2,5-bis(difluoromethoxy)phenyl]-1-[(2-pyrrolidin-3-yltetrazol-5-yl)methyl]pyrazol-4-yl]pyrazolo[1,5-a]pyrimidine-3-carboxamide]	7.1
